Ends that are not written are not given here.
Experiments:
A. baumannii ATCC #19606 = type: cell-based, Acinetobacter baumannii
Outline: (§1)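 Broth microdilution; read-outs MIC and MBC; peptides vs resistant clinical strains.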

A. baumannii WRAMC #11 = type: cell-based, Acinetobacter baumannii
Outline: as §1

A. baumannii WRAMC #13 = type: cell-based, Acinetobacter baumannii
Outline: as §1

A. baumannii WRAMC #15 = type: cell-based, Acinetobacter baumannii
Outline: as §1

A. baumannii WRAMC #16 = type: cell-based, Acinetobacter baumannii
Outline: as §1

A. baumannii WRAMC #17 = type: cell-based, Acinetobacter baumannii
Outline: as §1

A. baumannii WRAMC #18 = type: cell-based, Acinetobacter baumannii
Outline: as §1

A. baumannii WRAMC #19 = type: cell-based, Acinetobacter baumannii
Outline: as §1

A. baumannii WRAMC #2 = type: cell-based, Acinetobacter baumannii
Outline: as §1

A. baumannii WRAMC #4 = type: cell-based, Acinetobacter baumannii
Outline: as §1

A. baumannii WRAMC #5 = type: cell-based, Acinetobacter baumannii
Outline: as §1

A. baumannii WRAMC #8 = type: cell-based, Acinetobacter baumannii
Outline: as §1

VRE ATCC #51299 = type: cell-based, Enterococci
Source text: (§2) As shown in the table below, many drug-resistant pathogens including multidrug-resistant Acinetobacter baumannii (clinical isolates) were susceptible to the bactericidal activity of the newly developed antimicrobial peptides. […] This is shown by their lower MIC and MBC against a number of antibiotic-resistant bacteria including methicillin-resistant Staphylococcus aureus, vancomycin-resistant Enterococci, and multidrug-resistant Acinetobacter baumannii. Many of these resistant strains are involved in nosocomial infections, which affect the immunocompromised and the elderly individuals with weakened defenses. The tests were done in a broth microdilution assay as described in our earlier publication (Concannon et al., 2003).

VRE VVRAMC #7 = type: cell-based, Enterococci
Source text: as §2

VRE WRAMC #3 = type: cell-based, Enterococci
Source text: as §2

VRE WRAMC #6 = type: cell-based, Enterococci
Source text: as §2

physchem = type: physicochemical; conditions: for half-life at 200 μg/ml: buffer
Procedure: KSL was analyzed by RP-HPLC using a Prosphere C-18 analytical column (4.6×250 mm, Alltech, Deerfield, Ill.) with a Prosphere C-18 guard column (4.6×7.5 mm, Alltech, Deerfield, Ill.). A gradient elution was performed with mobile phase A (0.1% TFA in water) and mobile phase B (0.1% TFA in acetonitrile). KSL was eluted with a linear gradient from 80:20 to 70:30 (mobile phase A:B) for 8 min at a flow rate of 1.0 ml/min. Total run time was 16 min and the injection volume was 40 μl. Chromatograms were recorded by UV detection at 215 nm.
Test solutions of KSL were prepared using a stock peptide solution of 10 mg/ml in deionized water. The degradation of KSL peptide was investigated in sodium acetate (pH 4), sodium phosphate (pH 7.4) and sodium borate (pH 9) buffers at 0.1 M buffer concentration. Each buffer solution containing 200 μg/ml of KSL was incubated in a temperature-controlled oven at 25, 37 and 55° C., respectively. Samples were taken at pre-determined times and analyzed under HPLC conditions described above. The stability of KSL was studied at 37° C. in artificial saliva over a three day period. Artificial saliva was used in the in vitro release studies in an attempt to simulate actual conditions of use. The ingredients of the artificial saliva were as follows: sodium chloride, 0.844 g; potassium chloride, 1.200 g; calcium chloride dihydrate, 0.193 g; magnesium chloride hexahydrate, 0.111 g; potassium phosphate dibasic, 0.342 g; water to make to 1000 ml. The pH was adjusted with hydrochloric acid solution to pH 5.7±0.1 [26].

## KKVVFKVKFK-NH2 [KSL, Lys-Lys-Val-Val-Phe-Lys-Val-Lys-Phe-Lys-NH2]
A. baumannii ATCC #19606
  MBC: 200 µg/mL
  MIC: 100 µg/mL
A. baumannii WRAMC #11
  MBC: 200 µg/mL
  MIC: 100 µg/mL
A. baumannii WRAMC #13
  MBC: 200 µg/mL
  MIC: 50 µg/mL
A. baumannii WRAMC #15
  MBC: >200 µg/mL
  MIC: 100 µg/mL
A. baumannii WRAMC #16
  MBC: 25 µg/mL
A. baumannii WRAMC #17
  MBC: 100 µg/mL
A. baumannii WRAMC #18
  MBC: 200 µg/mL
  MIC: 50 µg/mL
A. baumannii WRAMC #19
  MBC: 50 µg/mL
A. baumannii WRAMC #2
  MBC: 100 µg/mL
A. baumannii WRAMC #4
  MBC: 25 µg/mL
  MIC: 12.5 µg/mL
A. baumannii WRAMC #5
  MBC: 50 µg/mL
A. baumannii WRAMC #8
  MBC: 100 µg/mL
VRE ATCC #51299
  MBC: >200 µg/mL
  MIC: >200 µg/mL
VRE VVRAMC #7
  MBC: 100 µg/mL
VRE WRAMC #3
  MBC: >200 µg/mL
  MIC: >200 µg/mL
VRE WRAMC #6
  MBC: 100 µg/mL
physchem; pH 4
  half-life at 200 μg/ml: 165 days
  Activation energy (Ea) of degradation: 6.7 kcal/mol
physchem; pH 7.4
  half-life at 200 μg/ml: 13.8 days
physchem; pH 9
  half-life at 200 μg/ml: 4.7 days
